Laboratory results: patent US4800161A (priority 1984, dated 1989)

Tests used:
[1] = biological target: aldose-1-epimerase (mutarotase, EC 5.1.3.3) from Acinetobacter calcoaceticus (Acinetobacter calcoaceticus, UniProt P05149)
Method: Principle: [drawing 1] Mutarotase, glucose-dehydrogenase and NAD are caused to react with a freshly prepared solution of α-glucose, and the NADH2 is determined by measuring the extinction at 366 nm. The measurement of the acceleration of the formation of NADH2 by mutarotase (compared with a blank without mutarotase) allows the mutarotase activity in the solution used to be calculated.
As soon as the extinction is constant, the start is made with 0.10 ml of solution 4 in each case.
A fresh glucose solution is prepared for each measurement. It is absolutely necessary to adhere to the following procedure in order to allow for the existing mutarotation: a 150 ml beaker is filled with 100 ml of distilled water and the temperature is adjusted to 20° C. The beaker is evenly stirred, 30 mg of α-glucose are added, the stopwatch is started and the time is marked on the recorder chart. Mixing takes place for 30 seconds. Within the next 15 seconds, the glucose solution is pipetted into the cell, the cell content is thoroughly mixed and, after the expiration of these 15 seconds, the increase in extinction is recorded. The measurment is taken at 366 nm, layer thickness 1 cm, cell temperature 25° C.
For evaluation, a tangent is put to the linear part at the origin of the recording curve, and ΔE/minute is read off; subtraction of the blank from the analysis value gives a value of ΔΔE/minute, which is inserted into the following calculation equation:
Enzyme activity=ΔΔE/minute×4.09 U of mutarotase per ml of […]

[2] = biological target: mutarotase from bovine kidneys (Bos taurus, UniProt Q5EA79); details: read-out: Michaelis constant (KM); glucose determination context
Sequence of mutarotase from bovine kidneys (Q5EA79 whole entry): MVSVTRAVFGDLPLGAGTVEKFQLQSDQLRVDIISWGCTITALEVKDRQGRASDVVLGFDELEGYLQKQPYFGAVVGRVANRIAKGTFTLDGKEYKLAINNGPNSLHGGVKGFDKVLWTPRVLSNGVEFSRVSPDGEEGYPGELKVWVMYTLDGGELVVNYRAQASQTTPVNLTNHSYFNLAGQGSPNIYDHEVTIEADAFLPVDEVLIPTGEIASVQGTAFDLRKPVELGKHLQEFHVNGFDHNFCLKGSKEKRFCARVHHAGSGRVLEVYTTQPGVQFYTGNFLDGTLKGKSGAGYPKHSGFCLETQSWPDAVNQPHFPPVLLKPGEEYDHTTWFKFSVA

[3] = tested on: mutarotase from Aspergillus niger; details: read-out: Michaelis constant (KM); Biochim. Biophys. Acta 662, 285 (1981); cited from earlier work

Sequence of aldose-1-epimerase (mutarotase, EC 5.1.3.3) from Acinetobacter calcoaceticus (P05149 21-381): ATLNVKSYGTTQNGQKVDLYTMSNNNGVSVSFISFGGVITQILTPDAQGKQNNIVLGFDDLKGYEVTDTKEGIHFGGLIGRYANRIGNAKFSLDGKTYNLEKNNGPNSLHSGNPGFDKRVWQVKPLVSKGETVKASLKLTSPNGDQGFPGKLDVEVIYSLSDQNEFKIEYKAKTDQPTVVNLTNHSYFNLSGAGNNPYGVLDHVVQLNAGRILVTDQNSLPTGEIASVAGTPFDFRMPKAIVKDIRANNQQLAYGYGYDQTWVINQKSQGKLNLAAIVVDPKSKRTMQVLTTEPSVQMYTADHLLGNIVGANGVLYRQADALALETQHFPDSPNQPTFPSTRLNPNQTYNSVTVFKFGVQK

| Substance | Michaelis constant for galactose compared with glucose [1] | Michaelis constant for galactose relative to that of the mutarotase from bovine kidneys [1] | Km [2] | Km [3] | Km ([1]; read-out: Michaelis constant (KM) for glucose, mutarotase according to the invention) |
| --- | --- | --- | --- | --- | --- |
| galactose | same Michaelis constant | 3 times |  |  |  |
| glucose |  |  | 18 to 20 mM | 50 mM | 6 to 8 mM |
